Measurements from patent US11596716B2, “Compounds and matrices for use in bone growth and repair” (Human BioMolecular Research Institute, priority 2013, dated 2023).
Like-named read-outs stand apart in the source and are kept apart here.

Assays:
[1] = system: C2C12 cells; assay: Alkaline Phosphatase (ALP) functional activity assay in C2C12 cells; format: cell-based, Mouse; conditions: normalized to DMSO treatment; for activation at 0.5 µM: Mus musculus, C2C12, 144 h
Description: Alkaline Phosphatase (ALP) Functional Activity Assay: C2C12 cells were plated into 12-well plates with 7,000 cells/well in 1 mL growth media. […] 1, 2, 3, or 4 in 0.1% DMSO was added (500 nM). Half the media was exchanged with fresh media containing compound every 48 hrs. After 6 days, media was removed, ALP Lysis Buffer (10 mM Tris-HCl pH 8.0, 1 mM MgCl2, and 1% Triton X100) added, and cell lysate obtained (10 min incubation at RT) by centrifugation (5 min at 3500× g at 4° C.). Para-nitrophenol phosphate (pNPP) (2 mg/mL) was incubated with 50 μl cell lysate (10 mins, 37° C.). After addition of […] 0.02 N NaOH, absorbance OD405 was measured. Protein concentration was determined by Bradford protein assay. Results of ALP activity were plotted as nM pNP hydrolyzed/mg total protein. After normalizing control samples (i.e., DMSO-treated samples) to one-fold, the fold-changes were plotted to indicate the relative ALP activity. […] This protocol was applied to hMSC and E15 cells as well.

[2] = system: Wnt transcription; assay: WNT transcriptional reporter assay (Super(8×)TOPflash luciferase, HEK293T cells); format: cell-based; conditions: Wnt3A-expressing vector, 20 hrs, relative to cells treated with DMSO alone, read-out: Wnt transcription potency
Text: Commercially available Super(8×)TOPflash vector driven by a (7×) TCF-firefly luciferase response element was transiently transfected into HEK293T cells, together with a TK-driven Renilla luciferase plasmid as an internal control to normalize the luminescence signal and a Wnt3A-expressing vector as the source of pathway activation. HEK293T cells were transfected with plasmids in DMEM plus 10% fetal bovine serum (FBS) for 8 hr, replated to 96-well plates in DMEM plus 10% FBS followed by treatment with compounds (1.6 nM to 5 M) (DMSO final concentration is 0.5%) for 20 hrs. Firefly and Renilla luciferase activities were measured and normalized by the Renilla luciferase values.

[3] = system: hMSCs; assay: qPCR of target gene mRNA expression in hMSCs; format: cell-based, human; conditions: hMSCs, comparison with compound 3 and calcium phosphate ceramic
Description: qPCR detection of osteogenic markers: Cells were cultured with compound in the presence or absence of matrix as described above, but using 96-well plate format. Total RNA was extracted from cells (as above) using Trizol. cDNA was made using 750 ng of total RNA with Bio-Rad iscript kit and was diluted 20-fold before being used for qPCR. qPCR was conducted under the following conditions: 95° C., 2 min; 95° C., 10 s and 60° C., 45 s for 40 cycles; 60° C. for 71 cycles for melt curve. qPCR results were analyzed by the ΔΔCt method. 18s rRNA was used as an internal standard. This protocol was applied to hMSC and E15 cells.
Runx2 and BMP-2 are osteogenic markers; Axin2, Wnt3a, and Sox 9 are Wnt-inducible gene markers.
The assay for mRNA expression followed the same procedure with hMSCs as described for C2C12 cells (Example 7).

[4] = compounds of Formula II or IV, absence of matrix
[5] = compounds of Formula II or IV, presence of calcium phosphate matrix
[6] = compounds of Formula VI, absence of matrix
[7] = compounds of Formula VI, presence of calcium phosphate matrix

Molecule	activation at 0.5 µM [1, 6] [%]	activation at 0.5 µM [1, 7] [%]	ALP activity −matrix [1, 6]	ALP activity +matrix [1, 7]	also measured
Cc1nc2c(-c3ccccc3)cnn2c(N2CCN(C)CC2)c1C [Compound 31, 3-phenyl-5,6-dimethyl-7-(N-methyl-N-piperazinyl)-pyrazolo[1,5-a]pyrimidine]	–	–	–	–	ALP activity −matrix [1, 4]: + (5-50%); ALP activity +matrix [1, 5]: + (5-50%); EC50 [2]: 15 to 40 nM
Cc1nc2c(-c3ccccc3)cnn2c(NCCC(C)C)c1C [Compound 32, 3-phenyl-5,6-dimethyl-7-[N-(3-methylbutyl)amino]-pyrazolo[1,5-a]pyrimidine]	–	–	–	–	activation at 0.5 µM [1, 4]: < 5%; activation at 0.5 µM [1, 5]: < 5%; EC50 ([2]; Homo sapiens, HEK-293T): > 40 nM
COc1cc(C=CC(=O)C=C(O)C=Cc2ccc(O)c(OC)c2)ccc1O [Compound 38, 1,7-Bis(4-hydroxy-3-methoxyphenyl)-5-hydroxy-hepta-1,4,6-trien-3-one]	5 to 50	> 100	–	–	robust mRNA up-regulation of VDR or ALP [3]: not observed
COc1ccc(F)cc1C=CC(=O)C=C(O)C=Cc1cc(F)ccc1OC [Compound 53, 1,7-Bis-(5-fluoro-2-methoxyphenyl)-5-Hydroxy-hepta-1,4,6-trien-3-one]	< 5	< 5	–	–	–
O=C(C=Cc1ccc(O)cc1)C1CCCC(=Cc2ccc(O)cc2)C1=O (stereo not drawn) [Compound 55, 2-(4-Hydroxybenzylidene)-6-(3-(4-hydroxyphenyl)acryloyl)-cyclohexanone]	5 to 50	5 to 50	–	–	–
COc1ccc(F)cc1C=CC(O)=C1CCCC(=Cc2cc(F)ccc2OC)C1=O [Compound 56, 2-(5-Fluoro-2-methoxybenzylidene)-6-(3-(5-fluoro-2-methoxyphenyl)-1-hydroxyallylidene) cyclohexanone]	< 5	> 100	–	–	–
CN(C)c1ccc(C=CC(=O)C2CCCC(=Cc3ccc(N(C)C)cc3)C2=O)cc1 (stereo not drawn) [Compound 57, 2-(4-N,N-dimethylaminobenzylidene)-6-(3-(4-N,N-dimethylaminophenyl)acryloyl)cyclohexanone]	–	–	− (<5%)	++ (50-100%)	–
COc1cc(C=CC(=O)C2CCCC(=Cc3ccc(O)c(OC)c3)C2=O)ccc1O (stereo not drawn) [Compound 58, 2-(4-Hydroxy-3-methoxybenzylidene)-6-(3-(4-hydroxy-3-methoxyphenyl)acryloyl)cyclohexanone]	5 to 50	5 to 50	–	–	–
COc1cc(N(C)C)ccc1C=CC(=O)C1CCCC(=Cc2ccc(N(C)C)cc2OC)C1=O (stereo not drawn) [Compound 59, 2-(4-N,N-dimethylamino-2-methoxybenzylidene)-6-(3-(4-N,N-dimethylamino-2-methoxyphenyl)acryloyl)cyclohexanone]	–	–	− (<5%)	++ (50-100%)	–
O=C(CCc1ccc(O)cc1)C1CCCC(Cc2ccc(O)cc2)C1=O (stereo not drawn) [Compound 62, 2-(4-Hydroxybenzyl)-6-(3-(4-hydroxyphenyl)propanoyl)cyclohexanone]	< 5	5 to 50	–	–	–
O=C(C=C(O)CCc1ccc(O)cc1)CCc1ccc(O)cc1 [Compound 63, 5-Hydroxy-1,7-bis(4-hydroxyphenyl)hept-4-en-3-one]	5 to 50	50 to 100	–	–	–
O=C(C=CC1CCCCC1)C1CCCC(=CC2CCCCC2)C1=O (stereo not drawn) [Compound 64, 2-(3-Cyclohexylacryloyl)-6-(cyclohexylmethylene)cyclohexanone]	5 to 50	5 to 50	–	–	–
NCCCCC(N)C(=O)Oc1ccc(C=CC(=O)CC(=O)C=Cc2ccc(OC(=O)C(N)CCCCN)cc2)cc1 [Compound 69, (2S,2′S)—O,O′-(3,5-Dioxohepta-1,6-diene-1,7-diyl)bis(4,1-phenylene) bis(2,6-bis-amino)hexanoate]	–	–	− (<5%)	+ (5-50%)	–
COc1cc(C=CC(=O)C=C(O)C=Cc2ccc(OC(=O)[C@@H](N)C(C)C)c(OC)c2)ccc1OC(=O)[C@@H](N)C(C)C [Compound 71, (2S,2′S)—O,O′-(3-hydroxy-5-oxohepta-1,3,6-triene-1,7-diyl)bis(2-methoxy-4,1-phenylene) bis(2-amino-3-methylbutanoate)]	–	–	+ (5-50%)	+ (5-50%)	–
COc1cc(C=CC(=O)C2CCCC(=Cc3ccc(OC(=O)C(N)CCCCN)c(OC)c3)C2=O)ccc1OC(=O)C(N)CCCCN (stereo not drawn) [Compound 80, 4-(3-(3-(4-(2,6-diaminohexanoyloxy)-3-methoxybenzylidene)-2-oxocyclohexyl)-3-oxoprop-1-enyl)-2-methoxyphenyl bis(2,6-diaminohexanoate)]	–	–	− (<5%)	+ (5-50%)	–
CC(C)[C@H](NC(=O)OC(C)(C)C)C(=O)Oc1ccc(C=CC(O)=CC(=O)C=Cc2ccc(O)cc2)cc1 [Compound 83, (S)-4-(3-hydroxy-7-(4-hydroxyphenyl)-5-oxohepta-1,3,6-trienyl)phenyl 2-N-Boc-amino-3-methylbutanoate]	–	–	+ (5-50%)	− (<5%)	–
(2S,2′S)4-(3-(3-(4-(2-amino-3-methylbutanoyloxy)-3-methoxybenzylidene)-2-oxocyclohexyl)-3-oxoprop-1-enyl)-2-methoxyphenyl bis(2-(tert-butoxycarbonylamino)-3-methylbutanoate) [Compound 78]	–	–	− (<5%)	+ (5-50%)	–
cis-1-acetyl-4-(phenylamino)-1,2,3,4-tetrahydroquinoline [Compound 20]	–	–	–	–	ALP activity −matrix [1, 4]: − (<5%); ALP activity +matrix [1, 5]: ++ (50-100%)
